# Measurements as given in patent US8247377B2, “Non-steroidal glucocorticoid inhibitors and their use in treating inflammation, allergy and auto-immune conditions” (Glaxo Group Limited, priority 2006, dated 2012).
# Legend:
# glucocorticoid receptor = biological target: T1, glucocorticoid receptor (Homo sapiens, UniProt P04150); assay: Glucocorticoid receptor binding assay (fluorescence polarisation); conditions: competition with Alexa 555 fluorescently-labelled dexamethasone derivative, full length glucocorticoid receptor; read-out: glucocorticoid binding pIC50 (converted)
# T1 construct: a partially purified full length glucocorticoid receptor
# T1 sequence (P04150 1-777): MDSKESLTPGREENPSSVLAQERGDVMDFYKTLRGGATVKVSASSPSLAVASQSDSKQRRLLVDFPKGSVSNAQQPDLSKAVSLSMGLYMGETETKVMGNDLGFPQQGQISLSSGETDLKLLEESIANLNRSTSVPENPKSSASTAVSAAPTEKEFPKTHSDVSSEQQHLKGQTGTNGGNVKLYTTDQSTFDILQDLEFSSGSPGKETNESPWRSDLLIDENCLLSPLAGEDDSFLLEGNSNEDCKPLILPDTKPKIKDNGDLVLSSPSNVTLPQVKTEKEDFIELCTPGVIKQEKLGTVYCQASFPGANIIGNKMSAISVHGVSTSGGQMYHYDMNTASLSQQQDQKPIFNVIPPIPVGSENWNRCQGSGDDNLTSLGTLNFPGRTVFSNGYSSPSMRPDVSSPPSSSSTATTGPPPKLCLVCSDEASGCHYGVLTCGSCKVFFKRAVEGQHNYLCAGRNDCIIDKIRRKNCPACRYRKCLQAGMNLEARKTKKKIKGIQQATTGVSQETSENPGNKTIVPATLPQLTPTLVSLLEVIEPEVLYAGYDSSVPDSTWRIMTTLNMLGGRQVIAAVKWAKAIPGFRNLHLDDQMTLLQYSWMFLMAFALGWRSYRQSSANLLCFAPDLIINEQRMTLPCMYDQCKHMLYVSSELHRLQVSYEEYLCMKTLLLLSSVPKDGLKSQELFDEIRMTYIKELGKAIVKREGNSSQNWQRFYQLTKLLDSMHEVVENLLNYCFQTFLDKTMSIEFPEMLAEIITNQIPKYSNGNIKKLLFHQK
# Procedure, shortened: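 Compounds in DMSO incubated with fluorescent dexamethasone and partially purified full-length GR plus stabilising buffer components, 2 hrs at room temperature in the dark. Displacement read as decrease in fluorescence polarisation; pIC50 estimated from dose-response curves.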
# NFκB = NFκB agonist assay in A549 SPAP cells; type: cell-based; conditions: Homo sapiens; for Emax: A549, A549 SPAP cells, >85% = full agonist, ≧20% = partial or full agonist, read-out: average maximum asymptote in the NFkB assay; for IC50: A549 SPAP cells, TNFα 3.2 ng/ml, read-out: pIC50 for the NFkB assay (converted);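 as to average maximum asymptote in the NFkB assay: maximum inhibition of the TNFα-induced NFκB-driven signal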
# Procedure, shortened: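 A549 cells stably carrying an ELAM/NFκB-driven SPAP reporter were pre-incubated 1 h at 37° C with compound, then stimulated with TNFα (3.2 ng/ml final) for 15 h. SPAP activity read colorimetrically with pNPP at 405 nm after ~1 h; pIC50 estimated from dose-response curves.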
# MMTV promoter = assay: MMTV agonist assay in A549 MMTV cells; type: cell-based; conditions: Homo sapiens, A549, 6 h, >85% = full agonist, >20% and <85% = partial or efficacy selective agonist, read-out: average maximum asymptote in the MMTV agonist assay
# Procedure, shortened: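 A549 cells stably carrying an MMTV promoter-driven renilla luciferase reporter were exposed to compound for 6 h at 37 °C in DMEM with 10% FCS and 25 mM HEPES. Luminescence read after renilla substrate addition; pEC50 and maximum asymptote estimated from dose-response curves.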
SMILES,IC50 (glucocorticoid receptor),Emax (NFκB),IC50 (NFκB),Emax (MMTV promoter)
"CCN(CC(O)(CNC(=O)c1cnn(-c2cc(F)ccc2F)c1N)C(F)(F)F)C(=O)c1c(F)cccc1F (racemic) [Example 36 (racemic), 5-amino-1-(2,5-difluorophenyl)-N-(2-{[[(2,6-difluorophenyl)carbonyl](ethyl)amino]methyl}-3,3,3-trifluoro-2-hydroxypropyl)-1H-pyrazole-4-carboxamide]",≤ 316 nM,> 85%,< 1000 nM,> 85%
"CN(CC(O)(CNC(=O)c1cnn(-c2ccc(F)cc2)c1N)C(F)(F)F)C(=O)c1c(C(F)(F)F)cccc1C(F)(F)F (racemic) [Example 22 (racemic), 5-amino-N-(2-{[{[2,6-bis(trifluoromethyl)phenyl]carbonyl}(methyl)amino]methyl}-3,3,3-trifluoro-2-hydroxypropyl)-1-(4-fluorophenyl)-1H-pyrazole-4-carboxamide]",≤ 316 nM,> 85%,< 1000 nM,> 85%
